Data from US20050059585A1, “Methionine aminopeptidase-2 inhibitors and methods of use thereof” (Praecis Pharmaceuticals Inc., priority 2000, published 2005).
Like-named read-outs stand apart in the source and are kept apart here. Square brackets hold non-standard residues; d marks the D form. Peptide text beside a SMILES is read from it. * marks the point of attachment. X2 = CO[C@@H]1[C@H](OC(=O)*)CC[C@]2(CO2)[C@H]1[C@@]1(C)O[C@@H]1CC=C(C)C; X3 = CO[C@@H]1[C@H](OC(=O)*)CC[C@]2(CO2)[C@H]1[C@@]1(C)O[C@@H]1CCC(C)C; Sar = CNCC(=O)O

How the values were obtained:
[1] = test system: human umbilical vein endothelial cells (HUVEC); assay: human endothelial cell growth assay (Huvec assay); type: cell-based
Procedure: For the human endothelial cell growth assay, human umbilical vein endothelial cells (HUVEC) were maintained in Clonetics endothelial growth medium (EGM) in a 37° C. humidified incubator. Cells were detached with trypsin and pelleted by centrifugation at 300×g for 5 minutes at room temperature. HUVEC were added to 96-well plates at 5,000 cells/well. After incubating for 6 hours, the medium was replaced with 0.2 ml fresh EGM supplemented with 0.5 nM bFGF and the desired concentration of test angiogenesis inhibitor compound. Test angiogenesis inhibitor compounds were initially dissolved in ethanol at stock concentrations of either 10 mM or 0.1 mM, and subsequently diluted in EGM to obtain concentrations from […] to 10 μM. After 48 hours at 37° C., the medium was replaced with fresh bFGF-supplemented EGM and test angiogenesis inhibitor compound. Following incubation for an additional 48 hours at 37° C. MTT (3-[4,5-dimethylthiazol-2-yl]-2,5-diphenyl-tetrazolium bromide) was added to 1 mg/ml. After 2-4 hours at 37° C. the medium was replaced with 0.1 ml/well isopropanol. The plates were placed on a shaker for 15 minutes at room temperature and analyzed in a Labsystems Multiskan plate spectrophotometer at an optical density of 570 nm.

[2] = test system: bovine aortic endothelial cell; assay: bovine aortic endothelial cell growth assay (Baec assay); type: cell-based
Procedure: The angiogenesis inhibitor compounds of the invention were tested for their ability to modulate human endothelial cell growth and for their ability to modulate the activity of MetAP2. The MetAP2 enzyme assay was performed essentially as described in Turk, B. et al. (1999) Chem. & Bio. 6: 823-833, the entire contents of which are incorporated herein by reference. The bovine aortic endothelial cell growth assay (Baec assay) was performed essentially as described in Turk, B. et al. (supra), the entire contents of which are incorporated herein by reference.

MetAP2 = target: T1, MetAP2 (Homo sapiens, UniProt P50579); assay: MetAP2 enzyme assay; type: biochemical
T1 construct: made in house; host or cells: insect cells
Procedure: Finally, the ability of the angiogenesis inhibitor compounds of the invention to modulate the activity of MetAP2 may be tested as follows.. Recombinant human MetAP2 may be expressed and purified from insect cells as described in Li and Chang, (1996) Biochem. Biophys. Res. Commun. 227:152-159. Various amounts of angiogenesis inhibitor compound is then added to buffer H (10 mM Hepes, pH 7.35, 100 mM KCl, 10% glycerol, and […]) containing lnM purified recombinant human MetAP2 and incubated at 37° C. for 30 minutes. To start the enzymatic reaction a peptide containing a methionine residue, e.g., Met-Gly-Met, is added to the reaction mixture (to a concentration of 1 mM). Released methionine is subsequently quantified at different time points (e.g., at 0, 2, 3, and 5 minutes) using the method of Zou et al. (1995) Mol. Gen Genetics 246:247-253).
The angiogenesis inhibitor compounds of the invention were tested for their ability to modulate human endothelial cell growth and for their ability to modulate the activity of MetAP2. The MetAP2 enzyme assay was performed essentially as described in Turk, B. et al. (1999) Chem. & Bio. 6: 823-833, the entire contents of which are incorporated herein by reference. […]

[3] = Homo sapiens, HUVEC, read-out: IC50 (pM), Huvec Assay
[4] = Bos taurus, BAEC, read-out: IC50 (pM), Baec Assay

T1 sequence (P50579 whole entry): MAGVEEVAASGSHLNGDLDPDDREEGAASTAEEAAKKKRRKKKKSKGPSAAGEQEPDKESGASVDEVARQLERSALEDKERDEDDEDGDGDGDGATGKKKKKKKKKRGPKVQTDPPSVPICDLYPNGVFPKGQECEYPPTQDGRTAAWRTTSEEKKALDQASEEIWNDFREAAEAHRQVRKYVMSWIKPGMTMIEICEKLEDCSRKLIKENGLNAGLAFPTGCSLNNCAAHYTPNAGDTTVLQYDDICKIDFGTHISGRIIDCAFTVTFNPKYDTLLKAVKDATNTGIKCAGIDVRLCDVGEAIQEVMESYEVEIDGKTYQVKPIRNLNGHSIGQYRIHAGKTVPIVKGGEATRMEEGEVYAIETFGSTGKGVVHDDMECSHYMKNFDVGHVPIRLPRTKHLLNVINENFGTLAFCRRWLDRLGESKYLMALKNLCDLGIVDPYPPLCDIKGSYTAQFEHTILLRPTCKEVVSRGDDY

| Compound | IC50 [2, 4] [pM] | IC50 ([1]; read-out: IC50, Huvec Assay) [pM] | further results |
| --- | --- | --- | --- |
| COC(=O)[C@H](NC(=O)O[C@@H]1CC[C@]2(CO2)[C@@H]([C@@]2(C)O[C@@H]2CC=C(C)C)[C@@H]1OC)c1ccccc1 [Example 4, {(3R, 4S, 5S, 6R)-5-Methoxy-4-[(2R, 3R )-2-methyl-3-(3-methyl-but-2-enyl)-oxiranyl]-1-oxa-spiro[2.5]oct-6-yloxycarbonylamino}-phenyl-acetic acid methyl ester] | 35 |  | IC50 [1, 3]: 36 pM |
| CO[C@@H]1[C@H](OC(=O)N[C@@H](C(N)=O)C(C)C)CC[C@]2(CO2)[C@H]1[C@@]1(C)O[C@@H]1CCC(C)C [Example 6, (1-Carbamoyl-2-methyl-propyl)-carbamic acid-(3R, 4S, 5S, 6R )-5-methoxy-4-[(2R, 3R)-2-methyl-3-(3-methyl-butyl)-oxiranyl]-1-oxa-spiro[2.5]oct-6-yl ester] | 220 |  |  |
| COC(=O)[C@H](NC(=O)O[C@@H]1CC[C@]2(CO2)[C@@H]([C@@]2(C)O[C@@H]2CC=C(C)C)[C@@H]1OC)C(C)(C)C [Example 8, 2-{(3R, 4S, 5S, 6R )-5-Methoxy-4-[(2R, 3R)-2-methyl-3-(3-methyl-but-2-enyl)-oxiranyl]-1-oxa-spiro[2.5]oct-6-yloxycarbonylamino}-3,3-dimethyl-butyric acid methyl ester] | 313 |  |  |
| COC(=O)[C@H](NC(=O)O[C@@H]1CC[C@]2(CO2)[C@@H]([C@@]2(C)O[C@@H]2CC=C(C)C)[C@@H]1OC)C1CCCCC1 [Example 9, Cyclohexyl-2-{(3R, 4S, 5S, 6R )-5-Methoxy-4-[(2R, 3R)-2-methyl-3-(3-methyl-but-2-enyl)-oxiranyl]-1-oxa-spiro[2.5]oct-6-yloxycarbonylamino}-acetic acid methyl ester] | 165 |  |  |
| CCC(C)C(NC(=O)O[C@@H]1CC[C@]2(CO2)[C@@H]([C@@]2(C)O[C@@H]2CC=C(C)C)[C@@H]1OC)C(=O)OC (some centres unmarked) [Example 10] | 179 |  |  |
| CO[C@@H]1[C@H](OC(=O)N[C@@H](C(=O)N[C@@H](CO)C(N)=O)C(C)C)CC[C@]2(CO2)[C@H]1[C@@]1(C)O[C@@H]1CC=C(C)C [Example 11] |  |  | IC50 ([2]; Bos taurus, BAEC, read-out: IC50, Baec Assay): > 100000 pM |
| CO[C@@H]1[C@H](OC(=O)NCC(=O)N[C@@H](CCCNC(=N)N)C(=O)NC[C@@H](O)N[C@@H](CC(=O)O)C(=O)N[C@@H](CO)C(=O)N2CCCC2C(N)=O)CC[C@]2(CO2)[C@H]1[C@@]1(C)O[C@@H]1CC=C(C)C (some centres unmarked) [Example 13] |  | > 1e+07 | IC50 (MetAP2): 2.9 nM |
| CO[C@@H]1[C@H](OC(=O)NCC(=O)N[C@@H](CCCNC(=N)N)C(=O)NCC(=O)N[C@@H](CC(=O)O)C(N)=O)CC[C@]2(CO2)[C@H]1[C@@]1(C)O[C@@H]1CCC(C)C [Example 15] (X3-GRGD-NH2) |  | > 1e+07 |  |
| CO[C@@H]1[C@H](OC(=O)NCC(=O)N2CCC[C@H]2C(=O)N[C@@H](CC(C)C)C(=O)N(C)CC(=O)O)CC[C@]2(CO2)[C@H]1[C@@]1(C)O[C@@H]1CC=C(C)C [Example 18, N-Carbamoyl (ID#26) (3R, 4S, 5S, 6R) 5-methoxy-4-[(2R,3R)2-methyl-3-(3methyl-but-2-enyl)-oxiranyl]-1-oxa-spiro[2.5]oct-6-yl ester] (X2-GPL[Sar]-OH) |  | > 100000 |  |
| CO[C@@H]1[C@H](OC(=O)NCC(=O)N2CCC[C@H]2C(=O)N[C@@H](CC(C)C)C(=O)NCC(=O)O)CC[C@]2(CO2)[C@H]1[C@@]1(C)O[C@@H]1CC=C(C)C [Example 19, N-Carbamoyl (ID#27) (3R, 4S, 5S, 6R) 5-methoxy-4-[(2R,3R)2-methyl-3-(3-methyl-but-2-enyl)-oxiranyl]-1-oxa-spiro [2.5]oct-6-yl ester] (X2-GPLG-OH) |  | > 100000 | IC50 ([2]; read-out: IC50, Baec Assay): > 100000 pM |
| CO[C@@H]1[C@H](OC(=O)N[C@@H](C(=O)O)C(C)C)CC[C@]2(CO2)[C@H]1[C@@]1(C)O[C@@H]1CC=C(C)C [Example 24, 2-{(3R, 4S, 5S, 6R)-5-Methoxy-4-[(2R, 3R)-2-methyl-3-(3-methyl-but-2-enyl)-oxiranyl]-1-oxa-spiro[2.5]oct-6-yloxycarbonylamino}-3-methyl-butyric acid] |  |  | IC50 [1, 3]: 5440 pM |
